Measurements reported in patent US20250051375A1, “ANTI-HIV COMPOUNDS” (Gilead Sciences, Inc., priority 2023, published 2025).
≈ marks a conversion by molar mass, not a printed value. Like-named read-outs stand apart in the source and are kept apart here.

Columns and labels:
[1] = target: bovine intestinal alkaline phosphatase (Bos taurus (Bovine), UniProt P19111); assay: BiALP: conversion by bovine intestinal alkaline phosphatase; type: in vitro ADME; settings: 2 μM substrate, 100 ng/mL iALP, Tris pH 7.8, 37° C., 60 minutes; for [Intermediate A] or [Amprenavir]: parent formed
bovine intestinal alkaline phosphatase, sequence (P19111 20-506): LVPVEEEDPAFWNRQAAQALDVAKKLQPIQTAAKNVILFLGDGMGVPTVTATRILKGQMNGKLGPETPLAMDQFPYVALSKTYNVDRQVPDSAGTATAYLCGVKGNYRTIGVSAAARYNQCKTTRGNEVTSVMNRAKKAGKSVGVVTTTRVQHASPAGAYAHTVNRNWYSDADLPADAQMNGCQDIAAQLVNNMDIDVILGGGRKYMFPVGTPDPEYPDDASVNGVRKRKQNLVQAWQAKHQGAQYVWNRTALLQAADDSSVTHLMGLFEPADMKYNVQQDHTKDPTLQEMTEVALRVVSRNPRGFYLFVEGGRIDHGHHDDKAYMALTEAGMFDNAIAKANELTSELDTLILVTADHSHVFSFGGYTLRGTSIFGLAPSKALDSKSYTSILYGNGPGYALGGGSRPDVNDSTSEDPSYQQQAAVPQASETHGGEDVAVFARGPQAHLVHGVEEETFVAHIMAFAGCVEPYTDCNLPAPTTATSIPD
Method: Fosamprenavir and its parent compound (amprenavir) were purchased from Millipore Sigma (St. Louis, MO). Test compounds, Intermediate A, fosamprenavir, and amprenavir were each separately dissolved in dimethyl sulfoxide (DMSO) at a concentration of 10 mM to form stock solutions.
All other chemicals were purchased from Millipore Sigma (St. Louis, MO) and Thermo Fisher Scientific (Waltham, MA). […] Internal Standard/Quench (IS/Q) was 100 nM labetalol in 99:1 (v/v) acetonitrile/formic acid.
Incubations were performed with Tris buffer alone (0.1 M Tris-HCl pH 7.8 containing 1 mM MgCl2 and 1 mM ZnCl2) or the same Tris buffer further containing 100 ng/mL iALP (0.01 units/mL). Triplicate 100 μL aliquots of Tris buffer±iALP were warmed to 37° C. and the reactions were initiated by the addition of the test compound or fosamprenavir to obtain final substrate concentrations of 2 μM. Incubations were then continued at 37° C. At 60 minutes, reactions were terminated by the addition of 200 μl of IS/Q and mixed by pipette. […] Aliquots (150 μL) of the supernatants were transferred to fresh plates containing 150 μL of water. Aliquots (15 μL) of the diluted supernatants were analyzed by mass spectrometry as described below.
Quantification of the test compounds and fosamprenavir was performed by analyte/internal standard peak area ratios (PARs) with comparison to 2 μM Intermediate A and amprenavir, respectively. The LC instrumentation consisted of a Thermo Scientific Vanquish pump and a Thermo Hypersil Gold column (1.9 μm particle size, 2.1×50 mm). […] The MS instrument was a Thermo Q Exactive™ Plus operating in positive ionization mode with mass tolerance of 5 ppm and calibrated on a twice weekly basis.

[2] = system: HIV-1 IIIB strain; assay: MT-4 HIV Wild Type Virus Infection Assay (IIIB Virus); type: cell-based; settings: Human immunodeficiency virus 1, IIIB, MT4, 120 h, MT-4 cells acutely infected with HIV-1 IIIB, 5 day incubation, Cell-titer glo
Method: Test compounds and controls were serially diluted and spotted in replicate into 384 well black assay plates via acoustic transfer (Echo). MT-4 cells were grown in batch, centrifuged and resuspended into fresh CCM media (RPMI w/10% FBS, 1% PS) at 2×10^6 cells/ml. MT-4 cells were acutely infected with HIV-1 IIIB strain. The size of each infection mix was scaled by the number of sample plates to be tested. Each infection mix was transferred into 5 mL closed tubes and nutated rapidly on a shaker at 37° C. incubator for 1 hour. The infection mixes were then diluted 25× in fresh cell culture media and then added to assay plates at 40 μL per well using a ViaFlo 384 pipettor. After 5 day incubation at 37° C. in a CO2 incubator, assay plates were processed with Cell-titer glo reagent using a ViaFlo 384 with an addition/mixing program. Plates were read immediately on Envision reader. Assay signals were plotted and dose response curves generated to determine individual compound EC50s.

[3] = Solubility in FaSSIF; settings: 23 °C, pH 6.5, fassif, thermodynamic from solid
Method: Buffer Preparation: Fasted State Simulated Intestinal Fluid (FaSSIF): Simulated Intestinal Fluid (SIF) powder containing a complex of Taurocholate and Lecithin (4:1 molar ratio) was obtained from Biorelevant. 0.056 g of SIF powder was added to 25 mL of buffer, adjusted to pH 6.5, containing 0.011 g of NaOH (pellets), 0.099 g of NaH2PO4 (monohydrate), and 0.155 g of NaCl. The buffer was prepared with HPLC H2O. The SIE powder was stirred until completely dissolved and allowed to stand for 2 hours.
Test Compounds: Each test compound was placed in a vial containing approximately 7 mg of material. Aliquots were weighed out for each assay media at each time point to be analyzed. The buffer was added to each vial such that the final dose concentration of 5 mg/mL was achieved. Samples were then vortexed for 5-10 seconds.
The plate was sealed with a pierceable heat seal and analyzed by HPLC-UV.

[4] = PBS Stability Assay; type: physicochemical; settings: buffer, pH 7.4, 2 μM, phosphate buffered saline pH 7.4; read-out: PBS T½
Method: Reagents. Stock solutions of test compounds in dimethyl sulfoxide (DMSO) having a final concentration of 10 mM were prepared and used in all experiments. Sekisui XenoTech (Kansas City, KS) provided pooled intestinal S9 fractions. All other chemicals were purchased from Sigma-Aldrich (St. Louis, MO) or VWR (West Chester, PA). Internal Standard/Quench (IS/Q) used to stop reactions was 100 nM labetalol in (by volume) formic acid (1%) and acetonitrile (99%).
PBS Stability Assay: For each test compound, an aliquot of the test compound was added to phosphate buffered saline (137 mM NaCl, 2.7 mM KCl, 10 mM phosphate buffer), pH 7.4. The incubation was initiated by the addition of the test compound to PBS to a final concentration of 2 μM. At 0, 10, 20, 30, 60 and 120 min, 25 μL aliquots of the incubation mixture were transferred to plates containing 225 μl of IS/Q solution. After quenching, the plates were centrifuged at 3000×g for 30 minutes. 150 μL aliquots of each supernatant were transferred to new plates and 150 μL water was added. Aliquots (10 μL) of the prepared samples were analyzed on a Thermo Q-Exactive mass spectrometer as described below.
Liquid Chromatography-Mass Spectrometry: Quantification of test compounds and control substrate was performed by analyte/internal standard peak area ratio (PAR) values measured on a Thermo Q-Exactive mass spectrometer coupled to a Dionex UltiMate 3000 HPLC with a Leap Technologies HTC PAL autosampler. The column used for analysis was a Thermo Scientific Hypersil GOLD (1.9 μm particle size, 50×2.1 mm). Mobile phase A consisted of 0.1% (v/v) formic acid in water. Mobile phase B consisted of 0.1% (v/v) formic acid in acetonitrile. Elution of analytes was achieved by a series of linear gradients varying the proportions of A and B. The mass spectrometer was calibrated on a weekly basis and mass tolerance of 5 ppm was used.
Data Analysis. Metabolic stabilities were determined by measuring the rates of disappearance of test compound and positive control substrate. Data (% of substrate remaining) were plotted on a semi-log scale and fitted using an exponential decline model:
where • Ct% of substrate remaining at time=t • C0% of substrate remaining at time=0 • t time • T½ half-life • The Half-life (T½) is determined by the following equation:
[formula] • Assuming a first-order reaction, the slope (k) is extrapolated from the aforementioned plotted data.

COC(=O)N[C@H](C(=O)N[C@@H](Cc1ccc(C#Cc2cnc(N3CC4CCC(C3)N4C3COC3)nc2)cc1)[C@H](CN(Cc1c(F)cc(-c2ccn(C(F)F)n2)cc1F)NC(=O)[C@@H](NC(=O)OC)C(C)(C)C(F)(F)F)OC(=O)OCOC(=O)CC(C)(C)c1c(CC(=O)N2CCCC2C(=O)O)cc(C)cc1OP(=O)(O)O)C(C)(C)C(F)(F)F (stereo partly shown) [Example 78]
[Compound] [1]: 2070.6 nM
EC50 [2]: 3.1 nM
solubility at 2 h [3]: 4390 µg/mL (≈ 2650 µM)

COC(=O)N[C@H](C(=O)N[C@@H](Cc1ccc(C#Cc2cnc(N3CC4CCC(C3)N4C3COC3)nc2)cc1)[C@H](CN(Cc1c(F)cc(-c2ccn(C(F)F)n2)cc1F)NC(=O)[C@@H](NC(=O)OC)C(C)(C)C(F)(F)F)OC(=O)CC(C)(C)c1c(CC(=O)N([C@H](C)C(=O)O)S(=O)(=O)O)cccc1OP(=O)(O)O)C(C)(C)C(F)(F)F [Example 39]
[Compound] [1]: 1310.3 nM

COC(=O)N[C@H](C(=O)N[C@@H](Cc1ccc(C#Cc2cnc(N3CC4CCC(C3)N4C3COC3)nc2)cc1)[C@H](CN(Cc1c(F)cc(-c2ccn(C(F)F)n2)cc1F)NC(=O)[C@@H](NC(=O)OC)C(C)(C)C(F)(F)F)OC(=O)OCOC(=O)CC(C)(C)c1c(CC(=O)N2CCN(S(C)(=O)=O)CC2)cc(C)cc1OP(=O)(O)O)C(C)(C)C(F)(F)F [Example 84]
[Compound] [1]: 1594.8 nM
EC50 [2]: 3.9 nM
half-life at 2 μM [4]: 3.02 h

COC(=O)N[C@H](C(=O)N[C@@H](Cc1ccc(C#Cc2cnc(N3CC4CCC(C3)N4C3COC3)nc2)cc1)[C@H](CN(Cc1c(F)cc(-c2ccn(C(F)F)n2)cc1F)NC(=O)[C@@H](NC(=O)OC)C(C)(C)C(F)(F)F)OC(=O)OCOC(=O)CC(C)(C)c1c(C)cc(C)cc1OP(=O)(O)O)C(C)(C)C(F)(F)F [Example 12]
EC50 ([2]; read-out: EC50): 23.4 nM
half-life at 2 μM [4]: 4.92 h

COC(=O)N[C@H](C(=O)N[C@@H](Cc1ccc(C#Cc2cnc(N3CC4CCC(C3)N4C3COC3)nc2)cc1)[C@H](CN(Cc1c(F)cc(-c2ccn(C(F)F)n2)cc1F)NC(=O)[C@@H](NC(=O)OC)C(C)(C)C(F)(F)F)OC(=O)CC(C)(C)c1c(CC(=O)N2CCN(S(C)(=O)=O)CC2)cc(C)cc1OP(=O)(O)O)C(C)(C)C(F)(F)F [Example 80, (5S,10S,11S,14S)-8-(4-(1-(difluoromethyl)-1H-pyrazol-3-yl)-2,6-difluorobenzyl)-11-(4-((2-(8-(oxetan-3-yl)-3,8-diazabicyclo[3.2.1]octan-3-yl)pyrimidin-5-yl)ethynyl)benzyl)-3,6,13,16-tetraoxo-5,14-bis(1,1,1-trifluoro-2-methylpropan-2-yl)-2,17-dioxa-4,7,8,12,15-pentaazaoctadecan-10-yl 3-methyl-3-(4-methyl-2-(2-(4-(methylsulfonyl)piperazin-1-yl)-2-oxoethyl)-6-(phosphonooxy)phenyl)butanoate]
[Compound] [1]: 2507.9 nM
biALP Intermediate A or [Amprenavir] (% of total) [1]: 0 % of total
[Intermediate A] or [Amprenavir] [1]: 0 nM
EC50 [2]: 735 nM
solubility at 2 h [3]: < 1000 µg/mL

COC(=O)N[C@H](C(=O)N[C@@H](Cc1ccc(C#Cc2cnc(N3CC4CCC(C3)N4C3COC3)nc2)cc1)[C@H](CN(Cc1c(F)cc(-c2ccn(C(F)F)n2)cc1F)NC(=O)[C@@H](NC(=O)OC)C(C)(C)C(F)(F)F)OC(=O)OCOC(=O)CC(C)(C)c1c(CC(=O)N2CCN(CC(=O)O)CC2)cc(C)cc1OP(=O)(O)O)C(C)(C)C(F)(F)F [Example 77]
[Compound] [1]: 2259 nM
EC50 [2]: 8.3 nM
solubility at 2 h [3]: 2760 µg/mL (≈ 1640 µM)

COC(=O)N[C@H](C(=O)N[C@@H](Cc1ccc(C#Cc2ccc(N3CC4CCC(C3)N4C3COC3)nc2)cc1)[C@H](CN(Cc1c(F)cc(-c2ccn(C(F)F)n2)cc1F)NC(=O)[C@@H](NC(=O)OC)C(C)(C)C(F)(F)F)OC(=O)CC(C)(C)c1c(CC(=O)NC(CC(=O)O)C(=O)O)cc(C)cc1CP(=O)(O)O)C(C)(C)C(F)(F)F (stereo partly shown) [Example 23]
[Compound] [1]: 2107.1 nM

COC(=O)N[C@H](C(=O)N[C@@H](Cc1ccc(C#Cc2cnc(N3CC4CCC(C3)N4C3COC3)nc2)cc1)[C@H](CN(Cc1c(F)cc(-c2ccn(C(F)F)n2)cc1F)NC(=O)[C@@H](NC(=O)OC)C(C)(C)C(F)(F)F)OC(=O)CC(C)(C)c1c(CC(=O)N2CCN(S(N)(=O)=O)CC2)cc(C)cc1OP(=O)(O)O)C(C)(C)C(F)(F)F [Example 81, (5S,10S,11S,14S)-8-(4-(1-(difluoromethyl)-1H-pyrazol-3-yl)-2,6-difluorobenzyl)-11-(4-((2-(8-(oxetan-3-yl)-3,8-diazabicyclo[3.2.1]octan-3-yl)pyrimidin-5-yl)ethynyl)benzyl)-3,6,13,16-tetraoxo-5,14-bis(1,1,1-trifluoro-2-methylpropan-2-yl)-2,17-dioxa-4,7,8,12,15-pentaazaoctadecan-10-yl 3-methyl-3-(4-methyl-2-(2-oxo-2-(4-sulfamoylpiperazin-1-yl)ethyl)-6-(phosphonooxy)phenyl)butanoate]
[Compound] [1]: 2385.2 nM
biALP Intermediate A or [Amprenavir] (% of total) [1]: 0 % of total
[Intermediate A] or [Amprenavir] [1]: 0 nM
EC50 [2]: 627 nM
solubility at 2 h [3]: < 1000 µg/mL

COC(=O)N[C@H](C(=O)N[C@@H](Cc1ccc(C#Cc2cnc(N3CC4CCC(C3)N4C3COC3)nc2)cc1)[C@H](CN(Cc1c(F)cc(-c2ccn(C(F)F)n2)cc1F)NC(=O)[C@@H](NC(=O)OC)C(C)(C)C(F)(F)F)OC(=O)CC(C)(C)c1c(CC(=O)N([C@H](C)C(=O)O)S(=O)(=O)O)cc(C)cc1OP(=O)(O)O)C(C)(C)C(F)(F)F [Example 32]
[Compound] [1]: 1435.5 nM

CC(C)CN(C[C@@H](OP(=O)(O)O)[C@H](Cc1ccccc1)NC(=O)O[C@H]1CCOC1)S(=O)(=O)c1ccc(N)cc1 [Fosamprenavir, fosamprenavir, reference compound]
[Compound] [1]: 1605 nM
